Reference: the supplement of paper PMC5752671
Structures can show the parent of a compound that is named as a salt.

Columns and labels:
EOL-1 = experiment: IC50 (cell viability) (log10 M); details: 4 days
In short: (§1)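 Listed values are the IC50, taken from fitted curves. Each is the log10 M concentration at which a four-parameter curve crosses 50% viability; where that point is not reached, the highest concentration tested is given. Fourteen leukemia cell lines on extracellular-matrix-coated 384-well plates were exposed in duplicate to eight drug concentrations within 10^–12–10^–4 M, and viability was read with CellTiter-Glo after 4 days.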

HL60 = experiment: IC50 (cell viability) (log10 M); details: 4 days
In short: as §1

KASUMI1 = experiment: IC50 (cell viability) (log10 M); details: 4 days
In short: as §1

KG1 = experiment: IC50 (cell viability) (log10 M); details: 4 days
In short: as §1

MOLM/13 = experiment: IC50 (cell viability) (log10 M); details: 4 days
In short: as §1

MOLM/16 = experiment: IC50 (cell viability) (log10 M); details: 4 days
In short: as §1

MV4.11 = experiment: IC50 (cell viability) (log10 M); details: 4 days
In short: as §1

NB4 = experiment: IC50 (cell viability) (log10 M); details: 4 days
In short: as §1

OCI-AML2 = experiment: IC50 (cell viability) (log10 M); details: 4 days
In short: as §1

OCI-AML3 = experiment: IC50 (cell viability) (log10 M); details: 4 days
In short: as §1

PL-21 = experiment: IC50 (cell viability) (log10 M); details: 4 days
In short: as §1

SKM1 = experiment: IC50 (cell viability) (log10 M); details: 4 days
In short: as §1

THP-1 = experiment: IC50 (cell viability) (log10 M); details: 4 days
In short: as §1

U937 = experiment: IC50 (cell viability) (log10 M); details: 4 days
In short: as §1

AML.061 = primary AML patient cells; experiment: area under dose-response curve (cell viability), primary AML patient cells (AUC (arbitrary, % viability x log concentration; ComBat batch-corrected)); higher = less sensitive (more viable); details: 4 days; sample type: primary AML patient cells
In short: (§2)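 Before testing, primary AML cells were DNase-thawed, cultured 48 h in IMDM with horse serum, fetal calf serum and low stem cell factor, and enriched for blasts. On extracellular-matrix-coated 384-well plates at 5000 cells/well, they received drugs the next day at eight concentrations within 10^–12–10^–4 M, in duplicate, and CellTiter-Glo viability was recorded after 4 days. The endpoint was area under the fitted four-parameter curve, corrected for batch using ComBat.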

AML.074 = primary AML patient cells; experiment: as above; details: 4 days; sample type: primary AML patient cells
In short: as §2

AML.077 = primary AML patient cells; experiment: as above; details: 4 days; sample type: primary AML patient cells
In short: as §2

AML010 = primary AML patient cells; experiment: as above; details: 4 days; sample type: primary AML patient cells
In short: as §2

SMILES	IC50 (log10 M) (EOL-1)	IC50 (log10 M) (HL60)	IC50 (log10 M) (KASUMI1)	IC50 (log10 M) (KG1)	IC50 (log10 M) (MOLM/13)	IC50 (log10 M) (MOLM/16)	IC50 (log10 M) (MV4.11)	IC50 (log10 M) (NB4)	IC50 (log10 M) (OCI-AML2)	IC50 (log10 M) (OCI-AML3)	IC50 (log10 M) (PL-21)	IC50 (log10 M) (SKM1)	IC50 (log10 M) (THP-1)	IC50 (log10 M) (U937)	area under dose-response curve (AML.061)	area under dose-response curve (AML.074)	area under dose-response curve (AML.077)	area under dose-response curve (AML010)
CCc1cccc2c3c([nH]c12)C(CC)(CC(=O)O)OCC3 (configuration not stated) [Etodolac]	> -5	> -5	> -5	> -5	> -5	> -5	> -5	> -5	> -5	> -5	> -5	> -5	> -5	> -5	650	712	731	769
CSCC[C@H](NC(=O)c1ccc(NC[C@@H](N)CS)cc1-c1ccccc1)C(=O)O [FTI-276]	> -5	> -5	> -5	> -5	> -5	> -5	> -5	> -5	> -5	> -5	> -5	> -5	> -5	> -5	846	≤ 678	717	782
CC1=C(/C=C/C(C)=C/C=C/C(C)=C/C(=O)Nc2ccc(O)cc2)C(C)(C)CCC1 [Fenretinide]	-5.86	-5.46	-5.47	-5.82	-5.29	-5.9	-5.75	-5.62	-5.5	-5.57	-5.44	-5.32	-5.28	-5.82	728	591	621	702
c1cc(-c2sc(-c3ccncc3)c(-c3ccncc3)c2-c2ccncc2)ccn1 [GANT58]	> -5	> -5	> -5	> -5	> -5	> -5	> -5	> -5	> -5	> -5	> -5	> -5	> -5	> -5	759	746	711	829
CCc1c2c(nc3ccc(OC(=O)N4CCC(N5CCCCC5)CC4)cc13)-c1cc3c(c(=O)n1C2)COC(=O)[C@]3(O)CC [Irinotecan HCl]	-6.09	-5.05	-5.07	-5.43	-5.77	-5.71	-6.08	-5.8	-5.55	-5.49	-5.44	-5.41	-5.37	-5.47	718	≤ 551	657	706
CC(C)C[C@@H](C=O)NC(=O)[C@H](CC(C)C)NC(=O)[C@H](CC(C)C)NC(=O)OCc1ccccc1 [MG132]	-7.15	-6.43	-6.3	-6.61	-6.97	-6.99	-7.18	-7.22	–	-7	-6.3	-6.97	-6.33	-6.99	≥ 738	630	≤ 529	627
CO[C@@]12[C@H](COC(N)=O)C3=C(C(=O)C(C)=C(N)C3=O)N1C[C@@H]1N[C@@H]12 [Mitomycin C]	-8.21	-6.97	-6.29	-6.54	-7.55	-7.38	< -8.48	-7.79	< -8.48	-7.53	-6.12	-7.15	-7.5	-7.18	526	≤ 311	444	608
FC(F)(F)c1ccc(/C=C/c2nc(COc3ccc(CCCCn4ccnn4)cc3)co2)cc1 [Mubritinib]	-7.63	> -5	> -5	> -5	> -5	-6.88	> -5	-6.42	> -5	> -5	> -5	> -5	> -5	-7.27	603	531	736	697
COc1cc(N2CCC(N3CCN(C)CC3)CC2)ccc1Nc1ncc(Cl)c(Nc2ccccc2S(=O)(=O)C(C)C)n1 [NVP-TAE-684]	-5.97	-5.65	-5.7	-5.7	-5.8	-5.56	-5.83	-5.25	-5.56	> -5	-5.79	-5.47	> -5	> -5	752	≤ 593	663	732
COc1cccc2cc(-c3nc([C@H]4CC[C@H](C(=O)O)CC4)n4ncnc(N)c34)[nH]c12 [OSI-027]	-8.18	-5.4	-5.9	-5.26	-5.97	-6.66	-6.48	-5.52	-5.73	-6.16	-6.24	-5.68	-5.85	-6.28	663	642	540	690
C[C@@H]1C[C@H]2[C@@H]3CCC4=CC(=O)C=C[C@]4(C)[C@@]3(F)[C@@H](O)C[C@]2(C)[C@@]1(O)C(=O)CO [dexamethasone]	> -5	> -5	> -5	> -5	> -5	> -5	> -5	> -5	> -5	> -5	> -5	> -5	> -5	> -5	588	1400	≤ 503	804
